Earlier results as cited in patent US6534676B2, “Method to treat chronic heart failure and/or elevated cholesterol levels using 3,5-diiodothyropropionic acid and method to prepare same” (The Arizona Board of Regents on Behalf of the University of …, priority 2001, dated 2003).

Experiments:
[1] = background statement; cited from earlier work
[2] = short-term intravenous, patients with advanced congestive failure; cited from earlier work

N[C@@H](Cc1cc(I)c(Oc2ccc(O)c(I)c2)c(I)c1)C(=O)O [T3, 3′,3,5-L-triiodothyrone]
half-life [1]: two days or less
cardiac output and arterial vascular resistance [2]: improve cardiac output and decrease arterial vascular resistance

NC(Cc1cc(I)c(Oc2cc(I)c(O)c(I)c2)c(I)c1)C(=O)O [Thyroxine, 3,5,3′5′-L-thyronine]
half-life [1]: 140 to 170 h
